Measured values taken from patent US20220324909A1, “THERAPEUTIC PEPTIDES” (COHBAR, INC., priority 2019, published 2022).
Non-standard residues stand in square brackets, D forms with d. Primed or numbered codes have the meaning given here. No end group written: not given here. PEG12(3) = not defined here

Experiments:
[1] = system: Male DIO mice; assay: Metabolic parameters in diet induced obese (DIO) mice, Example 20; format: in vivo, mouse; settings: N = 8
Method: Male C57BL/6 mice were maintained on a high fat diet for 18 weeks to develop diet induced obesity. Animals were randomized to treatment groups based on blood glucose levels and body weight. The peptides of the invention were administered to groups of male DIO mice once or twice daily by intraperitoneal injection at a dose of 5 mg/kg/dose for 8 to 10 days (N=8 animals per treatment group). Additional groups of male DIO mice (n=8) received vehicle (water) alone administered once or twice daily by intraperitoneal injection. Body weight, blood glucose levels and food intake were monitored. Body mass distribution (fat vs lean) was determined by quantitative whole body NMR prior to dosing and at the end of dosing.

[2] = system: C2C12 cells; assay: Cellular ROS levels induced by TBHP in C2C12 cells (DCFDA); format: cell-based, mouse; settings: sulforaphane 10 μM, protective control
Method: The protective or synergistic effect of the peptides on cellular levels of reactive oxygen species (ROS) induced by oxidative stress can be assessed using an assay of ROS in cultured cells such as mouse myoblasts exposed to a suitable oxidative stress. Peptides were initially prepared as 10 mM stock in DMSO, diluted to 1 mM in H2O, and added at a final concentration of 10 μM (0.1% DMSO). […] TBHP was used at final concentration of 100 μM. Sulforaphane at final concentration of 10 μM was used as a protective control against TBHP induced ROS production. […] C2C12 cells were grown in DMEM supplemented with 20% FBS with 100 IU/ml penicillin and 100 μg/ml streptomycin. […] C2C12 cells were seeded at 7,500 cells per well on 96-well plates. […] After 18-20 hours of incubation the cells were loaded with DCFDA for 45 min. TBHP at 100 μM was then added to the appropriate wells for 1 hour. ROS activity was determined using a DCFDA Cellular ROS Detection Assay kit (Abcam, Cambridge, Mass.) according to the manufacturer's instructions. Fluorescence in each sample well on the plate was measured using a Cytation 3 plate reader at Ex/Em=485/535 nm (BioTek, Winooski, Vt.). Activity was calculated relative to TBHP control. The relative standard deviation of the sulforaphane control was <20%. The ROS level produced by the sulforaphane control in the presence of TBHP was 52% of the TBHP control.

[3] = system: C2C12 cells; assay: ATP levels in cultured C2C12 cells (CellTiter-Glo); format: cell-based, mouse; settings: lovastatin 10 μM, positive control
Method: The effect of the peptides on cellular metabolism can be assessed using an assay of ATP levels in cultured cells such as mouse myoblast cells. Peptides were initially prepared as 10 mM stock in DMSO, diluted to 1 mM in H2O, and used at a final concentration of 10 μM (0.1% DMSO). […] Lovastatin was prepared as 10 mM stock in 70% Ethanol and used at final concentration of 10 μM containing 0.1% DMSO. CellTiter-Glo® Assay kit was purchased from Promega (Madison, Wis.). […] C2C12 cells were grown in DMEM medium supplemented with 20% FBS with 100 IU/ml penicillin and 100 μg/ml streptomycin. […] C2C12 cells were seeded at 800 cells per well on 96-well plates. […] ATP levels were determined using a CellTiter-Glo Assay kit according to the manufacturer's instructions. Luminescence for each sample well on the plate was measured using a Cytation 3 plate reader (BioTek, Winooski, Vt.). Activity was calculated relative to 0.1% DMSO treated control. The relative standard deviation of the result for the 0.1% DMSO treated control was <5%. […] ATP levels for treatment with lovastatin (10 μM) were <50% of the 0.1% DMSO treated control value.

[4] = system: C2C12 cells; assay: Cell proliferation in C2C12 cells (Cyquant DNA dye binding); format: cell-based, mouse; settings: lovastatin 10 μM, growth arrest control
Method: The effect of the peptides on cell proliferation was assessed using a DNA dye binding assay in cultured cells such as mouse myoblast cells. Peptides were initially prepared as 10 mM stock in DMSO, diluted to 1 mM in H2O, and added at a final concentration of 10 μM (0.1% DMSO). Lovastatin was used as a growth arrest control at final concentration of 10 μM. […] C2C12 cells were grown in DMEM supplemented with 20% FBS with 100 IU/ml penicillin and 100 μg/ml streptomycin. […] C2C12 cells were seeded at 800 cells per well on 96-well plates. […] Cell proliferation was determined using Cyquant Direct Nucleic Acid Stain (Thermo Fisher Scientific, Waltham, Mass.) according to the manufacturer's instructions. Fluorescence for each sample well on the plate was measured using a Cytation 3 plate reader at Ex/Em=495/535 nm (BioTek, Winooski, Vt.). Activity was calculated relative to 0.1% DMSO untreated control. The relative standard deviation for the lovastatin control was <27%. The cell proliferation for the lovastatin control was <25% of the value for untreated control.

[5] = system: 3T3-L1 mouse adipocytes; assay: Free fatty acid levels in cultured 3T3-L1 mouse adipocytes and insulin dependence (Example 17); format: cell-based; settings: insulin 10 nM, positive control
Method: The effect of the peptides on fatty acid metabolism can be assessed using an assay to monitor free fatty acid levels produced by cultured cells such as mouse adipocytes. […] Following 3 h incubation, conditioned medium from each well was transferred to a fresh 96-well plate. […] Absorbance values were expressed as percent control activity relative to 0.1 nM isoproterenol treated cells (no insulin) for 10 μM peptide alone or 0.25 nM insulin treated cells (with insulin) for 10 μM peptide in presence of 0.25 nM insulin. […] Data are presented as averages values from 2-3 independent experiments with each data point performed in triplicate.

[6] = system: 3T3-L1 mouse adipocytes; assay: Free fatty acid levels in 3T3-L1 mouse adipocytes (Example 12, 10 μM); format: cell-based; settings: insulin 100 nM, positive control
Method: The effect of the peptides on fatty acid metabolism can be assessed using an assay of free fatty acid levels in cultured cells such as mouse adipocytes. Peptides were initially prepared as 10 mM stock in DMSO, diluted to 1 mM in H2O, and used at a final concentration of 10 μM (0.1% DMSO). […] Insulin at 100 nM was added to control wells.

[7] = system: 3T3-L1 adipocytes; assay: Free fatty acid levels in cultured 3T3-L1 mouse adipocytes (Example 4, 25 μM); settings: for Free Fatty Acid Levels, Percent of Control Value: peptide 25 μM, 20-22 h then 3 h with isoproterenol 1 nM, relative to isoproterenol control
Method: Mouse 3T3-L1 adipocytes were seeded at 3,000 cells per well in 96-well plates in Pre-adipocyte Medium (Zen-Bio, Durham, N.C.) and grown to confluence at 37° C. in a humidified atmosphere of 5% CO2/95% air. Two days after confluence, cells were placed in Adipocyte Differentiation Medium (Zen-Bio, Durham, N.C.) and cultured for three additional days at 37° C. in a humidified atmosphere of 5% CO2/95% air. The culture media was then replaced with Adipocyte Maintenance Medium (Zen-Bio) and the cells maintained for an additional 9-12 days at 37° C. in a humidified atmosphere of 5% CO2/95% air with partial medium replacement every other day. Following 12-15 days' differentiation, test peptides were added to a final concentration of 25 μM and incubated for 20-22 hours in Adipocyte Maintenance Medium. After 20-22 hours, isoproterenol (1 nM) was added to all wells except untreated controls and test peptides were replenished. Cells were incubated for a further 3 hours in Assay Buffer (Zen-Bio). Free fatty acid concentrations in the media were determined using a Free Fatty Acid Assay Kit (Zen-Bio) according to the manufacturer's instructions using a plate reader (540 nm). Absorbance values were corrected for untreated background and expressed relative to isoproterenol treated cells. Treatment with isoproterenol (1 nM) alone was used as the free fatty acid level stimulatory control.

[8] = system: H4-IIE cells; assay: Glucose production in cultured H4-IIE cells and insulin dependence; format: cell-based, rat; settings: insulin 800 μM, modest inhibitor control
Method: The effect of the peptides on glucose homeostasis can be assessed using an assay to monitor glucose production by cultured cells such as rat hepatocytes. […] Following 24 h incubation, conditioned medium from each well was transferred to a fresh 96-well plate. Glucose concentrations in the medium were determined using a Glucose Assay kit (Abcam; Cambridge, Mass.) according to the manufacturer's instructions; absorbance measured using a Cytation 3 plate reader at 570 nm (BioTek, Winooski, Vt.). […] Untreated cells were used as reference for maximal glucose production. […] Insulin at 800 μM was used as a modest inhibitor glucose production. […] Data are presented as averages values from 2-4 independent experiments with each data point performed in triplicate.

[9] = system: C2C12 cells; assay: Caspase 3/7 activity in C2C12 cells; format: cell-based, mouse; settings: staurosporine 100 nM, positive control
Method: The effect of the peptides on cell death/survival can be assessed using a caspase-3/7 assay in cultured cells such as mouse myoblast cells. Peptides were initially prepared as 10 mM stock in DMSO, diluted to 1 mM in H2O, and used at a final concentration of 10 μM (0.1% DMSO). […] Staurosporine (Abcam, Cambridge, Mass.) was dissolved at 10 mM in DMSO as a stock solution. Caspase-Glo 3/7 Assay Reagent was purchased from Promega (Madison, Wis.). C2C12 cell line was purchased from American Type Culture Collection (Manassas, Va.). C2C12 cells were grown in DMEM supplemented with 20% FBS with 100 IU/ml penicillin and 100 μg/ml streptomycin. […] C2C12 cells were seeded at 4,000 cells per well on 96-well plates. […] Caspase 3/7 activity was determined using a Caspase-Glo 3/7 Assay kit according to the manufacturer's instructions. Luminescence for each sample well on the plate was measured using a Cytation 3 plate reader (BioTek, Winooski, Vt.). Activity was calculated relative to 0.1% DMSO control.

[10] = system: MCF-7 cells; assay: Cell viability, MTS assay in MCF-7 cells
Method: Peptides and reference compound staurosporine (Selleckchem) were dissolved with DMSO at 10 mM stock. CellTiter 96@ AQueous One Solution Reagent (MTS assay reagent) was purchased from Promega (Madison, Wis.). MCF-7 human breast cancer cell line was purchased from American Type Culture Collection (Manassas, Va.). MCF-7 cells were grown in EMEM Medium supplemented with 10% FBS and 0.01 mg/ml human recombinant insulin. 100 μg/ml penicillin and 100 μg/ml streptomycin were added to the culture medium. Cells were incubated with test peptides at 10 μM at 37° C. in a humidified atmosphere of 5% CO2 and 95% air for 72 hours. 5 μl of CellTiter 96@ AQueous One Solution Reagent (MTS assay reagent) was added to each well and incubated at 37° C., 5% CO2 for 5 hours. Absorbance at 492 nm was recorded by Envision 2104 Multilabel Reader. Treatment with DMSO alone was used as the cell viability activity control. The relative standard deviation of the DMSO control was 3%.

[11] = system: MDA-MB-231 cells; assay: Caspase 3/7 activity in MDA-MB-231 cells (Caspase-Glo 3/7); format: cell-based, human
Method: The effect of the peptides on cell death/survival can be assessed using a caspase-3 assay. Peptides were dissolved with DMSO at 10 mM stock. […] Staurosporine (Selleckchem) was dissolved with DMSO at 1 mM stock. Caspase-Glo 3/7 Assay Reagent was purchased from Promega (Madison, Wis.). MDA-MB-231 human breast cancer cell line was purchased from American Type Culture Collection (Manassas, Va.). MDA-MB-231 cells were grown in DMEM Medium supplemented with 10% FBS. 100 μg/ml penicillin and 100 μg/ml streptomycin were added to the culture medium. […] 25 μl of Caspase-Glo 3/7 Assay Reagent was added to each well and incubated at 37° C., 5% CO2 for 1 hour. Luminescence for each sample well on the plate was measured by Envision 2104 Multilabel Reader (PerkinElmer, Santa Clara, Calif.). Activity was calculated relative to DMSO control.

[12] = system: MDA-MB-231 cells; assay: Cell viability, MTS assay in MDA-MB-231 cells; format: cell-based, human
Method: Test compounds and reference compound staurosporine (Selleckchem) were all dissolved with DMSO at 10 mM stock. […] Activity was calculated relative to DMSO control. […] Cell viability was 3% of the DMSO control value for Staurosporine (10 μM).

[13] = 5 mg/kg/dose BID intraperitoneal, 8 days
[14] = 5 mg/kg/dose QD intraperitoneal, 10 days
[15] = staurosporine 10 μM, positive control

## RRMMGMVFQCLCG(dA) (RRMMGMVFQCLCG[dA]; cysteine pairing not given here) [SEQ ID NO: 8]
[1]; [13]
  Difference from Vehicle Control: Decrease from Baseline in Blood Glucose: -14.3 mg/dL
  Difference from Vehicle Control: Decrease from Baseline in Body Weight: −5.66%
  Difference from Vehicle Control: Decrease from Baseline in Fat Mass: -2.15 g

## C[S+]([O-])CCCCN=C=S (stereo not shown) [sulforaphane, reference compound]
[2]
  ROS level in the presence of TBHP, % of TBHP control: 52%

## CC[C@H](C)C(=O)O[C@H]1C[C@@H](C)C=C2C=C[C@H](C)[C@H](CC[C@@H]3C[C@@H](O)CC(=O)O3)[C@H]21 [lovastatin, reference compound]
[3]
  ATP levels, % of 0.1% DMSO treated control value: < 50%
[4]
  Cell proliferation, % of value for untreated control: < 25%

## insulin [reference compound]
[5]
  Free fatty acid levels, % of isoproterenol control value: < 5%
[6]
  Free fatty acid levels, % of isoproterenol control value: < 5%
[7]; insulin 100 nM, positive control
  Free fatty acid levels, % of isoproterenol control value: < 5%
[8]
  Glucose levels, % of untreated control value: 20-50%

## 5 (RRIIGIVFQCLC) [compound 5]
[7]
  Free Fatty Acid Levels, Percent of Control Value: 115%

## 4 (RRIIGIVFQCLCG) [compound 4]
[7]
  Free Fatty Acid Levels, Percent of Control Value: 100%

## RRMMGMVFQSLCG(dA) (RRMMGMVFQSLCG[dA]) [SEQ ID NO: 15]
[1]; [14]
  Difference from Vehicle Control: Decrease from Baseline in Blood Glucose: -3.38 mg/dL
  Difference from Vehicle Control: Decrease from Baseline in Body Weight: −4.97%
  Difference from Vehicle Control: Decrease from Baseline in Fat Mass: -2.19 g

## CN[C@@H]1C[C@H]2O[C@@](C)([C@@H]1OC)n1c3ccccc3c3c4c(c5c6ccccc6n2c5c31)C(=O)NC4 [staurosporine, reference compound]
[9]
  Caspase 3/7 activity, % of background-corrected DMSO control value: 670%
[10]; [15]
  Cell viability, % of background corrected DMSO control value: < 5%
[11]; staurosporine 0.05 nM, positive control
  Caspase activity, % of background-corrected DMSO control value: 130%
[12]; [15]
  Cell viability, % of DMSO control value: 3%

## (PEG12)KRRIIGIVFQCLCG(dA) ([PEG12(3)]KRRIIGIVFQCLCG[dA]; cysteine pairing not given here) [SEQ ID NO: 42]
[1]; [14]
  Difference from Vehicle Control: Decrease from Baseline in Blood Glucose: -10.7 mg/dL
  Difference from Vehicle Control: Decrease from Baseline in Body Weight: −2.94%

## 3 (RRIIGIVFQCLCGL) [compound 3]
[7]
  Free Fatty Acid Levels, Percent of Control Value: 89%

## RRMMGMVEQSLCG(dA) (RRMMGMVEQSLCG[dA]) [SEQ ID NO: 38]
[1]; [14]
  Difference from Vehicle Control: Decrease from Baseline in Blood Glucose: -24.1 mg/dL
  Difference from Vehicle Control: Decrease from Baseline in Body Weight: −3.12%

## (PEG12)KRRMMGMVFQCLCG(dA) (KRRMMGMVFQCLCGA; N-terminal PEG12; C-terminal D-alanine; (1)..(1) PEG12; (15)..(15) d-Ala) [SEQ ID NO: 20]
[1]; [14]
  Difference from Vehicle Control: Decrease from Baseline in Blood Glucose: -0.75 mg/dL
  Difference from Vehicle Control: Decrease from Baseline in Body Weight: −3.59%
  Difference from Vehicle Control: Decrease from Baseline in Fat Mass: -1.78 g

## 2 (MRRIIGIVFQCLCGL) [compound 2]
[10]; peptide 10 μM, 72 hours, relative to DMSO control
  MTS Assay, Percent of Control Activity: 67%
[11]; peptide 10 μM, 18 hours, relative to DMSO control
  Caspase 3/7 Activity, Percent of Control Activity: 62%
[12]; 72 hours, relative to DMSO control, concentration not given
  MTS Assay, Percent of Control Activity: 79%
[7]
  Free Fatty Acid Levels, Percent of Control Value: 97%
